Assay results reported in patent US20080221086A1, “Novel Inhibitors of Glutaminyl Cyclase” (PROBIODRUG AG, priority 2006, published 2008).

Each compound was assayed against hQC (Homo sapiens, UniProt Q16769) (assay: Fluorometric assay of glutaminyl cyclase (QC) inhibition, H-Gln-βNA or H-Gln-AMC substrate). Settings: compound from preparative synthesis, purified by chromatography; fluorescent assay; read-out: IC50 hQC.
Assay type: biochemical
How it was run: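 Fluorometric coupled assays at 30° C in Tris/HCl pH 8.0 with EDTA and pyroglutamyl aminopeptidase used either 0.2 mM H-Gln-βNA (320/410 nm) or H-Gln-AMC (380/460 nm), started by QC. Screening used 4 mM inhibitor at substrate 1 KM. Ki came from fitting progress curves to competitive inhibition.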

Chain of hQC (Q16769 29-361): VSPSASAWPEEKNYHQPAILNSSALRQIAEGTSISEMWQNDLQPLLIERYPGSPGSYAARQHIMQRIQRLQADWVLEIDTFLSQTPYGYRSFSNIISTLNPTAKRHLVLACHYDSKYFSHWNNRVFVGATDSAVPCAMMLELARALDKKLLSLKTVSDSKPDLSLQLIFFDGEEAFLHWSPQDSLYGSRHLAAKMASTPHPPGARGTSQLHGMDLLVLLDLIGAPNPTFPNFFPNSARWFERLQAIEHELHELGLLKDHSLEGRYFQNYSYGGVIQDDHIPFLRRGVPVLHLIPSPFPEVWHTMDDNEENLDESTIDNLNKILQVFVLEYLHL

Row | IC50 | Compound
1 | 37.7 nM | O=C1N/C(=N\C2CCCC2)C(c2ccc(Cl)cc2)N1c1ccc2[nH]cnc2c1 (stereo not shown) [Compound 211, 1-(1H-Benzoimidazol-5-yl)-5-(4-chloro-phenyl)-4-cyclopentylimino-imidazolidin-2-one]
2 | 98.4 nM | O=C1N/C(=N\C2CCCCC2)C(c2c(F)ccc(Cl)c2F)N1c1ccc2[nH]cnc2c1 (stereo not shown) [Compound 220, 1-(1H-Benzoimidazol-5-yl)-5-(3-chloro-2,6-difluoro-phenyl)-4-(cyclohexylimino)-imidazolidin-2-one]

Same assay, conditions: read-out: IC50

Row | IC50 | Compound
3 | 9400 nM | O=C1N/C(=N\C2CCCCCC2)C(C2CCOC2)N1c1ccc2[nH]cnc2c1 (stereo not shown) [Compound 205, 1-(1H-Benzoimidazol-5-yl)-4-cycloheptylimino-5-(tetrahydro-furan-3-yl)-imidazolidin-2-one]
4 | 7600 nM | COC(=O)C(C)/N=C1\NC(=O)N(c2ccc3[nH]cnc3c2)C1C1CCC(C)=CC1C (stereo not shown) [Compound 206, Methyl 2-(1-(1H-benzo[d]imidazol-5-yl)-5-(2,4-dimethylcyclohex-3-enyl)-2-oxoimidazolidin-4-ylideneamino)propanoate]
5 | 4000 nM | O=C(C/N=C1\NC(=S)N(c2ccc3[nH]cnc3c2)C1c1cc2ccccc2s1)N1CCSCC1 (stereo not shown) [Compound 207, 2-(5-(benzo[b]thiophen-2-yl)-1-(1H-benzo[d]imidazol-5-yl)-2-thioxoimidazolidin-4-ylideneamino)-1-thiomorpholinoethan-one]
6 | 4000 nM | O=C(C/N=C1/NC(=O)N(c2ccc3[nH]cnc3c2)C1c1ccc(Br)cc1)N1CCSCC1 (stereo not shown) [Compound 208, 1-(1H-Benzoimidazol-5-yl)-5-(4-bromo-phenyl)-4-2-oxo-2-thiomorpholin-4-yl-ethylimino-imidazolidin-2-one]
7 | 1300 nM | O=C1N/C(=N\CCCc2ccccc2)C(c2coc3ccccc3c2=O)N1c1ccc2[nH]cnc2c1 (stereo not shown) [Compound 209, 1-(1H-Benzoimidazol-5-yl)-5-(4-oxo-4H-chromen-3-yl)-4-3-phenyl-propylimino-imidazolidin-2-one]
8 | 3100 nM | S=C1N/C(=N\C2CCCC2)C(c2ccc(N3CCCC3)cc2)N1c1ccc2[nH]cnc2c1 (stereo not shown) [Compound 210, 1-(1H-Benzoimidazol-5-yl)-4-cyclopentylimino-5-(4-pyrrolidin-1-yl-phenyl)-imidazolidine-2-thione]
9 | 4 nM | O=C1N/C(=N\C2CCCC2)C(c2ccc(Cl)cc2)N1c1ccc2[nH]cnc2c1 (stereo not shown) [Compound 211, 1-(1H-Benzoimidazol-5-yl)-5-(4-chloro-phenyl)-4-cyclopentylimino-imidazolidin-2-one]
10 | 4900 nM | O=C1N/C(=N\CCCN2CCOCC2)C(c2ccnc3ccccc23)N1c1ccc2[nH]cnc2c1 (stereo not shown) [Compound 212, 1-(1H-Benzoimidazol-5-yl)-4-3-morpholin-4-yl-propylimino-5-quinolin-4-yl-imidazolidin-2-one]
11 | 4 nM | Cc1ccc2occ(C3/C(=N/C4CCc5ccccc54)NC(=O)N3c3ccc4[nH]cnc4c3)c(=O)c2c1 (stereo not shown) [Compound 213, 1-(1H-Benzoimidazol-5-yl)-4-indan-1-ylimino-5-(6-methyl-4-oxo-4H-chromen-3-yl)-imidazolidin-2-one]
12 | 7600 nM | Oc1cccc(C2/C(=N/c3cc(Cl)ccc3Cl)NC(=S)N2c2ccc3[nH]cnc3c2)c1 (stereo not shown) [Compound 214, 1-(1H-Benzoimidazol-5-yl)-4-2,5-dichloro-phenylimino-5-(3-hydroxy-phenyl)-imidazolidine-2-thione]
13 | 6700 nM | O=C1CCCN1CCCN=C1NC(=O)N(c2ccc3[nH]cnc3c2)C1c1cccc2cccnc12 (stereo not shown) [Compound 215, 1-(1H-Benzoimidazol-5-yl)-4-3-(2-oxo-pyrrolidin-1-yl)-propylimino-5-quinolin-8-yl-imidazolidin-2-one]
14 | 400 nM | S=C1N/C(=N/Cn2nnc3ccccc32)C(c2ccc3c(c2)OCCO3)N1c1ccc2[nH]cnc2c1 (stereo not shown) [Compound 217, 1-(1H-Benzoimidazol-5-yl)-4-benzotriazol-1-ylmethylimino-5-(2,3-dihydro-benzo1,4dioxin-6-yl)-imidazolidine-2-thione]
15 | 4 nM | O=C1N/C(=N\C2CCc3ccccc32)C(c2ccc3[nH]ccc3c2)N1c1ccc2[nH]cnc2c1 (stereo not shown) [Compound 218, 1-(1H-Benzoimidazol-5-yl)-4-indan-1-ylimino-5-(1H-indol-5-yl)-imidazolidin-2-one]
16 | 4 nM | Cc1ccc(C2/C(=N\CCc3c[nH]c4ccccc34)NC(=O)N2c2ccc3[nH]cnc3c2)c(C)c1 (stereo not shown) [Compound 219, 1-(1H-Benzoimidazol-5-yl)-5-(2,4-dimethyl-phenyl)-4-2-(1H-indol-3-yl)-ethylimino-imidazolidin-2-one]
17 | 4 nM | O=C1N/C(=N\C2CCCCC2)C(c2c(F)ccc(Cl)c2F)N1c1ccc2[nH]cnc2c1 (stereo not shown) [Compound 220, 1-(1H-Benzoimidazol-5-yl)-5-(3-chloro-2,6-difluoro-phenyl)-4-(cyclohexylimino)-imidazolidin-2-one]
18 | 6700 nM | O=C1N/C(=N/Cc2cccnc2)C(c2ccc3ccccc3c2)N1c1ccc2[nH]cnc2c1 (stereo not shown) [Compound 221, 1-(1H-Benzoimidazol-5-yl)-5-naphthalen-2-yl-4-pyridin-3-ylmethylimino-imidazolidin-2-one]
19 | 1300 nM | O=C(CN=C1NC(=O)N(c2ccc3[nH]cnc3c2)C1c1ccc2[nH]ccc2c1)N1CCC(O)C1 (stereo not shown) [Compound 222, 1-(1H-Benzoimidazol-5-yl)-4-2-(3-hydroxy-pyrrolidin-1-yl)-2-oxo-ethylimino-5-(1H-indol-5-yl)-imidazolidin-2-one]
20 | 400 nM | C/N=C1/NC(=O)N(c2ccc3[nH]cnc3c2)C1c1c[nH]c2ccc(Cl)cc12 (stereo not shown) [Compound 223, 1-(1H-Benzoimidazol-5-yl)-5-(5-chloro-1H-indol-3-yl)-4-methylimino-imidazolidin-2-one]

Row | IC50 | Compound
21 | 4 nM | O=C1N/C(=N/CCCc2ccccc2)C(c2ccc3[nH]ccc3c2)N1c1ccc2[nH]cnc2c1 (stereo not shown) [Compound 224, 1-(1H-Benzoimidazol-5-yl)-5-(1H-indol-5-yl)-4-3-phenyl-propylimino-imidazolidin-2-one]
22 | 6700 nM | COc1ccc(C2C(=NCC(=O)N3CCSCC3)NC(=S)N2c2ccc3[nH]cnc3c2)c(F)c1 (stereo not shown) [Compound 225, 2-(1-(1H-Benzo[d]imidazol-5-yl)-5-(2-fluoro-4-methoxyphenyl)-2-thioxoimidazolidin-4-ylideneamino)-1-thiomorpholinoethanone]
23 | 1300 nM | O=C1N/C(=N/Cc2cccnc2)C(c2cc(F)cc(F)c2)N1c1ccc2[nH]cnc2c1 (stereo not shown) [Compound 227, 1-(1H-Benzoimidazol-5-yl)-5-(3,5-difluoro-phenyl)-4-pyridin-3-ylmethylimino-imidazolidin-2-one]
24 | 4 nM | O=C1N/C(=N\C2CCCc3ccccc32)C(c2c(F)ccc(Cl)c2F)N1c1ccc2nc[nH]c2c1 (stereo not shown) [Compound 228, 1-(3H-Benzoimidazol-5-yl)-5-(3-chloro-2,6-difluoro-phenyl)-4-1,2,3,4-tetrahydro-naphthalen-1-ylimino-imidazolidin-2-one]
25 | 8500 nM | OC(CN=C1NC(=S)N(c2ccc3[nH]cnc3c2)C1c1cc(F)cc(F)c1)c1ccccc1 (stereo not shown) [Compound 229, 1-(1H-Benzoimidazol-5-yl)-5-(3,5-difluoro-phenyl)-4-2-hydroxy-2-phenyl-ethylimino-imidazolidine-2-thione]
26 | 4 nM | Cc1ccc2c(C3/C(=N\Cc4ccccc4)NC(=O)N3c3ccc4[nH]cnc4c3)c[nH]c2c1 (stereo not shown) [Compound 230, 1-(1H-Benzoimidazol-5-yl)-4-benzylimino-5-(6-methyl-1H-indol-3-yl)-imidazolidin-2-one]
27 | 4000 nM | O=C1CCCN1CCCN=C1NC(=S)N(c2ccc3[nH]cnc3c2)C1c1ccc2nsnc2c1 (stereo not shown) [Compound 231, 1-{3-1-(1H-Benzoimidazol-5-yl)-5-benzo[c][1,2,5]thiadiazol-5-yl-2-thioxo-imidazolidin-(4Z)-ylideneamino-propyl}-pyrrolidin-2-one]
28 | 2200 nM | O=C1N/C(=N/CCCc2ccccc2)C(c2c[nH]c3cc(F)ccc23)N1c1ccc2[nH]cnc2c1 (stereo not shown) [Compound 232, 1-(1H-Benzoimidazol-5-yl)-5-(6-fluoro-1H-indol-3-yl)-4-3-phenyl-propylimino-imidazolidin-2-one]
29 | 2200 nM | O=C1N/C(=N/CCN2CCOCC2)C(c2ccc3ccccc3c2)N1c1ccc2[nH]cnc2c1 (stereo not shown) [Compound 233, 1-(1H-Benzoimidazol-5-yl)-4-2-morpholin-4-yl-ethylimino-5-naphthalen-2-yl-imidazolidin-2-one]
30 | 7600 nM | COC(=O)C(C)/N=C1\NC(=O)N(c2ccc3[nH]cnc3c2)C1c1ccccc1 (stereo not shown) [Compound 234, Methyl 2-(1-(1H-benzo[d]imidazol-5-yl)-2-oxo-5-phenylimidazolidin-4-ylideneamino)propanoate]
31 | 4 nM | O=C1N/C(=N\c2ccc3c(c2)OCCO3)C(c2ccc3c(c2)OCCO3)N1c1ccc2[nH]cnc2c1 (stereo not shown) [Compound 235, 1-(1H-Benzoimidazol-5-yl)-5-(2,3-dihydro-benzo1,4dioxin-6-yl)-4-2,3-dihydro-benzo1,4dioxin-6-ylimino-imidazolidin-2-one]
32 | 2200 nM | O=C1N/C(=N\C2CCCc3ccccc32)C(c2cc(Br)cs2)N1c1ccc2nc[nH]c2c1 (stereo not shown) [Compound 236, 1-(3H-Benzoimidazol-5-yl)-5-(4-bromo-thiophen-2-yl)-4-1,2,3,4-tetrahydro-naphthalen-1-ylimino-imidazolidin-2-one]
33 | 7600 nM | Cc1ccc(C2/C(=N/c3c(Cl)cccc3Cl)NC(=S)N2c2ccc3nc[nH]c3c2)cc1 (stereo not shown) [Compound 237, 1-(3H-Benzoimidazol-5-yl)-4-2,6-dichloro-phenylimino-5-p-tolyl-imidazolidine-2-thione]
34 | 4 nM | O=C1N/C(=N\C2CCCCC2O)C(c2ccc3nsnc3c2)N1c1ccc2[nH]cnc2c1 (stereo not shown) [Compound 238]
35 | 400 nM | Cc1ccc2occ(C3/C(=N/CCCc4ccccc4)NC(=O)N3c3ccc4[nH]cnc4c3)c(=O)c2c1 (stereo not shown) [Compound 239, 1-(1H-Benzoimidazol-5-yl)-5-(6-methyl-4-oxo-4H-chromen-3-yl)-4-(3-phenyl-propylimino)-imidazolidin-2-one]
36 | 8500 nM | S=C1N/C(=N\C(Cc2ccccc2)c2ccccc2)C(C2=CCCCC2)N1c1ccc2[nH]cnc2c1 (stereo not shown) [Compound 240, 1-(1H-Benzoimidazol-5-yl)-5-cyclohex-1-enyl-4-1,2-diphenyl-ethylimino-imidazolidine-2-thione]
37 | 4 nM | O=C1CCCN1CCC/N=C1/NC(=O)N(c2ccc3[nH]cnc3c2)C1c1cccc(Br)c1 (stereo not shown) [Compound 241, 1-(1H-Benzoimidazol-5-yl)-5-(3-bromo-phenyl)-4-3-(2-oxo-pyrrolidin-1-yl)-propylimino-imidazolidin-2-one]
